The target in data set [1] is T1, MRGPRX2 (Homo sapiens, UniProt Q96LB1).
T1 sequence (Q96LB1 1-330): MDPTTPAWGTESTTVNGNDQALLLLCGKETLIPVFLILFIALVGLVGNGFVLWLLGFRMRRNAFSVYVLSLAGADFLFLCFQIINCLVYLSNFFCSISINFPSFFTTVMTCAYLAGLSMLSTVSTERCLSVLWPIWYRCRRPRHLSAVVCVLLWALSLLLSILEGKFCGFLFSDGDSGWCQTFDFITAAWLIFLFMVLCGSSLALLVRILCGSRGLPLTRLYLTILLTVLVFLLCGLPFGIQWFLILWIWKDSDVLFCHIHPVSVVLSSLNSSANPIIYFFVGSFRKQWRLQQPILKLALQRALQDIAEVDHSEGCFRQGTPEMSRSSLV
Kind of data set: Degranulation (β-hexosaminidase release), RBL-MRGPRX2 cells. It is filed as cell-based. The protocol:
(§1) Having a competitive MRGPRX2 antagonist with subnanomolar potency in hand, we next studied its effects on MCs. Activation of MRGPRX2, which is highly expressed in skin MCs, results in degranulation and histamine release.[19] We therefore investigated whether PSB-172656 inhibits MRGPRX2-mediated MC activation utilizing the rat MC line RBL-2H3 recombinantly expressing the human MRGPRX2 (designated RBL-MRGPRX2). These cells were treated with two different concentrations of PSB-172656 (100 nM and 300 nM), and then exposed to different MRGPRX2 agonists, namely C48/80 (0.3 µg/mL), SP (0.3 µM), and PAMP-12 (0.1 µM), respectively. Degranulation of the cells was assayed by β-hexosaminidase release measurements.
(§2) Fig. 5 PSB-172656 blocks MRGPRX2-induced mast cell degranulation without affecting IgE-mediated responses. a RBL-MRGPRX2 cells were incubated with control (vehicle) or preincubated with PSB-172656 (100 or 300 nM), followed by stimulation with C48/80 (0.3 µg/mL), substance P (SP; 0.3 µM), or PAMP-12 (0.1 µM), and β-hexosaminidase release was measured. RBL-MRGPRX2 cells were sensitized with monoclonal anti-dinitrophenyl antibody (DNP-specific IgE), and degranulation induced by 2,4-dinitrophenylated bovine serum albumin (DNP-BSA, 10 and 30 ng/mL) was measured without or after preincubation with PSB-172656 (0.1 and 0.3 µM). […] Data are expressed as means ± SEM of 3 biological replicates. Statistical significance was determined by two-way ANOVA (Tukey’s multiple comparisons)
Rat basophilic leukemia (RBL-2H3) cells that stably expressed the human MGPRGX2 (RBL-MRGPRX2) were grown in Dulbecco’s modified Eagle’s medium (DMEM) supplemented with 10% FBS, L-glutamine (2 mM), penicillin (100 IU/mL), and streptomycin (100 µg/mL).[42]
Degranulation as determined by β-hexosaminidase release was performed as described previously.[66],[67] Briefly, RBL-MRGPRX2 cells (5 × 10^4 cells/well) were seeded into 96-well cell culture plates. After 16 h, cells were treated with PSB-172656 or solvent for 5 min in HEPES buffer containing 0.1% bovine serum albumin (BSA), and then activated with MRGPRX2 agonist (C48/80, SP, PAMP-12, or LL-37) for 30 min at 37 °C. For measurement of total β-hexosaminidase content, unstimulated cells were lyzed by Triton X-100 (0.1%). Aliquots (20 µL) of supernatant were incubated with 20 µL of 1 mM 4-nitrophenyl-N-acetyl-β-D-glucosaminide (PNAG) for 1 h at 37°C. Finally, the reaction was stopped by adding 250 µL of 0.1 M Na2CO3/0.1 M NaHCO3 buffer, and absorbance was determined with a Versamax microplate spectrophotometer (Molecular Devices, San José, CA) at a wavelength of 405 nm. The degranulation was quantitated as a percentage of β-hexosaminidase release by dividing the β-hexosaminidase in the sample by the total enzyme content. To test the antigen response, RBL-MRGPRX2 (5 × 10^4 cells/well) cells were sensitized with DNP-specific mouse IgE (SPE-7; 1 µg/mL). After 16 h, cells were preincubated in the absence or presence of respective concentrations of PSB-172656 for 5 min, followed by the stimulation of antigen (DNP-BSA, 10 and 30 ng/mL), and the degranulation was measured as described above. For degranulation in LAD2 cells, 1 × 10^4 cells/well were seeded into 96-well cell culture plates, incubated with or without PSB-172656 for 5 min, then with the MRGPRX2 agonist SP for 30 min, and degranulation was measured similarly.

The nature of data set [2]: Metabolic stability in human liver microsomes. It is filed as in vitro ADME. To be noted: human liver microsomes 0.25 mg/ml, compound 1 µM. On the technique in general: Liver microsomes are a subcellular fraction often used to study metabolism.
The test system of data set [3] is IgE-mediated degranulation. Kind of data set: IgE-mediated degranulation (DNP-BSA) of RBL-MRGPRX2 cells sensitized with DNP-specific IgE. It is filed as cell-based, rat. The settings on record: 0.1 and 0.3 µM; DNP-BSA 10 and 30 ng/mL. The method, then:
as §1
as §2, with “Statistical significance was determined by two-way ANOVA (Tukey’s multiple comparisons)” left out

Data on one compound can be found in paper PMC12010006, “Subnanomolar MAS-related G protein-coupled receptor-X2/B2 antagonists with efficacy in human mast cells and disease models” (Signal Transduction and Targeted Therapy, 2025).

The IC50 is the concentration at which inhibition is half-maximal. A high value points to weaker potency in that assay.

For `CCc1c(C(C)C)[nH]c2nc3cc(F)c(F)cc3n2c1=O` [Compound 24, 3-ethyl-7,8-difluoro-2-isopropylbenzo[4,5]imidazo [1,2-a] pyrimidin-4(1H)-one], in data set [1] (100 nM and 300 nM, C48/80 0.3 µg/mL), the “effect on MC degranulation in response to C48/80” value was “completely abolished”. The “effect on MC degranulation in response to PAMP-12” value in data set [1] (100 nM and 300 nM, PAMP-12 0.1 µM) is recorded as “substantially inhibited”. Further, in data set [1] (100 nM and 300 nM, SP 0.3 µM), the “effect on MC degranulation in response to SP” value is “completely abolished”. Besides, the IC50 turned out to be 3.79 nM in data set [1] (versus C48/80 (0.3 µg/mL)), 8.12 nM in data set [1] (versus LL-37 (3 µM)), 11.7 nM in data set [1] (versus PAMP-12 (0.1 µM)) and 15.5 nM in data set [1] (versus SP (0.3 µM)). In addition, in data set [2] (both sexes, human, liver microsomes, read-out: T1/2 (half-life)), the half-life at 1 µM came to 1.53 h. Besides, in data set [2] (both sexes, read-out: Clint (intrinsic clearance)), the microsomal CLint at 1 µM was 15 µL/min/mg. In addition, the “T1/2 (half-life)” value was 1.54 h in data set [2] and > 1.5 h in data set [2] (listed as PSB-172656). Moreover, the “effect on IgE-mediated degranulation induced by DNP-BSA” value in data set [3] is “did not inhibit”.
